Source: ChEMBL document CHEMBL1201862, “PubChem BioAssay data set” (2004)
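Protocol summary: plate cells (96-well), add compound at 5 concentrations, incubate 48 h, interpolate endpoints linearly. Here, GI50 denotes the concentration required for 50% inhibition of growth.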 Calls of active or inactive are those of the source. Cut-off read from the data, not from the text of the source: active = GI50 up to about 1.1 µM and inactive = higher.

Tests used:
Assay in all cases: NCI anticancer screen, dose series, 48 h
[1] = tested on: SK-MEL-2
[2] = tested on: KM-20L2
[3] = tested on: SN12C
[4] = tested on: SNB-19
[5] = tested on: K562
[6] = tested on: ACHN
[7] = tested on: NCI-H522
[8] = tested on: SNB-75
[9] = tested on: EKVX
[10] = tested on: OVCAR-3
[11] = tested on: RXF 631
[12] = tested on: HCC 2998
[13] = tested on: A498
[14] = tested on: SK-OV-3
[15] = tested on: HOP-62
[16] = tested on: A549
[17] = tested on: TK-10
[18] = tested on: SF-268
[19] = tested on: XF498
[20] = tested on: SK-MEL-5
[21] = tested on: NCI-H23
[22] = tested on: MOLT-4
[23] = tested on: OVCAR-5
[24] = tested on: SF-295
[25] = tested on: CAKI-1
[26] = tested on: DMS-114
[27] = tested on: NCI-H460
[28] = tested on: RXF 393
[29] = tested on: UO-31
[30] = tested on: SF-539
[31] = tested on: KM12
[32] = tested on: U-251
[33] = tested on: DLD-1
[34] = tested on: SNB-78
[35] = tested on: LOX IMVI
[36] = tested on: RPMI-8226
[37] = tested on: HT-29
[38] = tested on: CCRF-CEM
[39] = tested on: COLO 205
[40] = tested on: Malme-3M
[41] = tested on: LXFL 529
[42] = tested on: HOP-92
[43] = tested on: M14
[44] = tested on: OVCAR-4
[45] = tested on: UACC-257
[46] = tested on: SW-620
[47] = tested on: UACC-62
[48] = tested on: 786-0
[49] = tested on: M19-MEL
[50] = tested on: DMS-273
[51] = tested on: IGROV-1
[52] = tested on: OVCAR-8
[53] = tested on: HL-60
[54] = tested on: NCI-H226
[55] = tested on: HCT-116
[56] = tested on: HCT-15
[57] = tested on: SR

In the case of `O=c1[nH]c(=O)n(C2CC(O)C(CO)O2)cc1COCC(F)(F)F` (stereo not given), the GI50 [1] is reported as > 100 µM (inactive), the GI50 [2] is reported as > 100 µM (inactive) and the GI50 [3] is reported as > 100 µM (inactive). For the same molecule, the GI50 [4] was > 100 µM (inactive), the GI50 [5] was > 100 µM (inactive) and the GI50 [6] was > 100 µM (inactive). The GI50 [7] was > 100 µM (inactive), the GI50 [8] was > 100 µM (inactive) and the GI50 [9] was > 100 µM (inactive). The GI50 [10] was > 100 µM (inactive), the GI50 [11] was > 100 µM (inactive) and the GI50 [12] was > 100 µM (inactive). The GI50 [13] was > 100 µM (inactive), the GI50 [14] was > 100 µM (inactive) and the GI50 [15] was > 100 µM (inactive). For the same molecule, the GI50 [16] was > 100 µM (inactive), the GI50 [17] was > 100 µM (inactive) and the GI50 [18] was > 100 µM (inactive). For the same molecule, the GI50 [19] was > 100 µM (inactive), the GI50 [20] was > 100 µM (inactive) and the GI50 [21] was > 100 µM (inactive). For the same molecule, the GI50 [22] was > 100 µM (inactive), the GI50 [23] was > 100 µM (inactive) and the GI50 [24] was > 100 µM (inactive). For the same molecule, the GI50 [25] was > 100 µM (inactive), the GI50 [26] was > 100 µM (inactive) and the GI50 [27] was > 100 µM (inactive). For the same molecule, the GI50 [28] was > 100 µM (inactive), the GI50 [29] was > 100 µM (inactive) and the GI50 [30] was > 100 µM (inactive). For the same molecule, the GI50 [31] was > 100 µM (inactive), the GI50 [32] was > 100 µM (inactive) and the GI50 [33] was > 100 µM (inactive). For the same molecule, the GI50 [34] was > 100 µM (inactive), the GI50 [35] was > 100 µM (inactive) and the GI50 [36] was > 100 µM (inactive). For the same molecule, the GI50 [37] was > 100 µM (inactive), the GI50 [38] was 86.5 µM (inactive) and the GI50 [39] was > 100 µM (inactive). For the same molecule, the GI50 [40] was > 100 µM (inactive), the GI50 [41] was > 100 µM (inactive) and the GI50 [42] was > 100 µM (inactive). For the same molecule, the GI50 [43] was > 100 µM (inactive), the GI50 [44] was > 100 µM (inactive) and the GI50 [45] was > 100 µM (inactive). The GI50 [46] was > 100 µM (inactive), the GI50 [47] was > 100 µM (inactive) and the GI50 [48] was > 100 µM (inactive). For the same molecule, the GI50 [49] was > 100 µM (inactive), the GI50 [50] was > 100 µM (inactive) and the GI50 [51] was > 100 µM (inactive). For the same molecule, the GI50 [52] was > 100 µM (inactive) and the GI50 [53] was > 100 µM (inactive).
With `CNS(=O)(=O)NN(C)S(=O)(=O)c1ccc(Cl)cc1` the GI50 [1] was > 100 µM (inactive), the GI50 [2] was > 100 µM (inactive) and the GI50 [3] was > 100 µM (inactive). The GI50 [4] was > 100 µM (inactive), the GI50 [54] was > 100 µM (inactive) and the GI50 [5] was > 100 µM (inactive). For the same molecule, the GI50 [6] was > 100 µM (inactive), the GI50 [7] was > 100 µM (inactive) and the GI50 [8] was > 100 µM (inactive). For the same molecule, the GI50 [9] was 98.4 µM (inactive), the GI50 [10] was > 100 µM (inactive) and the GI50 [11] was > 100 µM (inactive). For the same molecule, the GI50 [12] was > 100 µM (inactive), the GI50 [13] was > 100 µM (inactive) and the GI50 [15] was > 100 µM (inactive). The GI50 [16] was > 100 µM (inactive), the GI50 [17] was > 100 µM (inactive) and the GI50 [18] was > 100 µM (inactive). The GI50 [19] was > 100 µM (inactive), the GI50 [20] was > 100 µM (inactive) and the GI50 [21] was > 100 µM (inactive). The GI50 [55] was > 100 µM (inactive), the GI50 [22] was > 100 µM (inactive) and the GI50 [24] was > 100 µM (inactive). For the same molecule, the GI50 [25] was > 100 µM (inactive), the GI50 [26] was > 100 µM (inactive) and the GI50 [28] was > 100 µM (inactive). The GI50 [29] was > 100 µM (inactive), the GI50 [30] was > 100 µM (inactive) and the GI50 [31] was > 100 µM (inactive). For the same molecule, the GI50 [32] was 83 µM (inactive), the GI50 [33] was > 100 µM (inactive) and the GI50 [35] was > 100 µM (inactive). The GI50 [36] was > 100 µM (inactive), the GI50 [37] was > 100 µM (inactive) and the GI50 [38] was > 100 µM (inactive). For the same molecule, the GI50 [39] was > 100 µM (inactive), the GI50 [56] was over 100 µM and the GI50 [40] was > 100 µM (inactive). The GI50 [41] was > 100 µM (inactive), the GI50 [43] was > 100 µM (inactive) and the GI50 [44] was > 100 µM (inactive). For the same molecule, the GI50 [45] was > 100 µM (inactive), the GI50 [46] was > 100 µM (inactive) and the GI50 [47] was > 100 µM (inactive). For the same molecule, the GI50 [48] was > 100 µM (inactive), the GI50 [57] was > 100 µM (inactive) and the GI50 [49] was > 100 µM (inactive). The GI50 [50] was > 100 µM (inactive), the GI50 [51] was > 100 µM (inactive) and the GI50 [52] was > 100 µM (inactive). For the same molecule, the GI50 [53] was > 100 µM (inactive).
